Measured values published in the supplement of paper PMC3493320.

Test system: NCI-H295R
Assay: IC50 (antiproliferative, ATP content)
Conditions: 48 h
Summary of the method: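 Serum-free ITS-supplemented DMEM was used to seed 1500 adrenocortical carcinoma cells per well in 1536-well plates, which were cultured overnight. Eight final concentrations of each library compound, from 0.6 nM to 46 µM, were added by pin transfer, followed by 48 h at 37 °C in 5% CO2 and a CellTiter-Glo ATP read after 20 min at room temperature. Luminescence was set against vehicle and positive-control wells, and the IC50 was obtained by logistic curve fitting. Any compound with no concentration response was entered as above the top dose.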

Row | SMILES | IC50 [µM]
1 | C[C@H]1[C@H]2CC[C@H]3[C@@H]4CC=C5C[C@@H](N(C)C)CC[C@]5(C)[C@H]4CC[C@]23CN1C | > 46
2 | CC(=O)Oc1ccc2c3c1O[C@H]1[C@@H](OC(C)=O)C=C[C@H]4[C@@H](C2)N(C)CC[C@@]341 | > 46
3 | O=C(CCCN1CCC2(CC1)C(=O)NCN2c1ccccc1)c1ccc(F)cc1 | > 46
4 | CC(O)(P(=O)([O-])O)P(=O)([O-])O.[Na+].[Na+] | > 46
5 | NS(=O)(=O)c1cc(C(=O)O)c(NCc2ccco2)cc1Cl | > 46
6 | Cc1noc(NS(=O)(=O)c2ccc(N)cc2)c1C | > 46
7 | CC(=O)Oc1c(C)cc(OCC(O)CNC(C)C)c(C)c1C (stereo not drawn) | > 46
8 | C=C1C[C@H]2[C@@H]3C=C(C)C4=CC(=O)CC[C@]4(C)[C@H]3CC[C@]2(C)[C@@]1(OC(C)=O)C(C)=O | > 46
9 | CN(C)[C@@H]1C(O)=C(C(N)=O)C(=O)[C@@]2(O)C(O)=C3C(=O)c4c(O)ccc(Cl)c4[C@@](C)(O)[C@H]3C[C@@H]12.Cl | > 46
10 | O=c1cc[nH]c(=O)[nH]1 | > 46
11 | O[C@H]1[C@@H]([C@H](O)CO)O[C@H]2[C@@H]1O[C@@H]([C@@](Cl)(Cl)Cl)O2 | > 46
12 | CCN(CC)C(C)C(=O)c1ccccc1.Cl (stereo not drawn) | > 46
13 | CCOc1ccc2ccccc2c1C(=O)N[C@@H]1C(=O)N2[C@@H]1SC(C)(C)[C@@H]2C(=O)[O-].O.[Na+] | > 46
14 | CC(=O)O[C@@H]3C\C4=C\C[C@@H]2[C@H](CC[C@]1(C)C(=O)CC[C@H]12)[C@@]4(C)CC3 | > 46
15 | CCN(C)C(=O)Oc1cccc([C@H](C)N(C)C)c1.O=C(O)[C@@H](O)[C@H](O)C(=O)O | > 46
16 | O=C1CC[C@@]2(O)[C@H]3Cc4ccc(O)c5c4[C@@]2(CCN3CC2CC2)[C@H]1O5 | > 46
17 | O=P([O-])(O)C(Cl)(Cl)P(=O)([O-])O.[Na+].[Na+] | > 46
18 | N[C@@H](Cc1ccc(Oc2cc(I)c(O)c(I)c2)c(I)c1)C(=O)O | > 46
19 | C#C[C@]1(O)C=C[C@H]2[C@@H]3CCC4=CC(=O)CC[C@@H]4[C@H]3CC[C@@]21CC | > 46

Row | SMILES | IC50 [µM]
20 | COC(=O)CCC[N+](C)(C)C.[Cl-] | > 46
21 | Cl.Oc1cn2c(n1)Nc1ccc(Cl)c(Cl)c1C2 | > 46
22 | CN[C@@H]1[C@H](O[C@H]2[C@H](O[C@H]3[C@H](O)[C@@H](O)[C@H](NC(=N)N)[C@@H](O)[C@@H]3NC(=N)N)O[C@@H](C)[C@]2(O)CO)O[C@@H](CO)[C@H](O)[C@H]1O.CN[C@@H]1[C@H](O[C@H]2[C@H](O[C@H]3[C@H](O)[C@@H](O)[C@H](NC(=N)N)[C@@H](O)[C@@H]3NC(=N)N)O[C@@H](C)[C@]2(O)CO)O[C@@H](CO)[C@H](O)[C@H]1O.O=S(=O)(O)O.O=S(=O)(O)O.O=S(=O)(O)O | > 46
23 | O=[C@@](OCN2C(N(CC#C)CC2=O)=O)[C@H]1C(C)(C)[C@@H]1\C=C(C)/C | > 46
24 | CN1c2ccccc2C(NCCCCCCC(=O)[O-])c2ccc(Cl)cc2S1(=O)=O.[Na+] (stereo not drawn) | > 46
25 | Nc1c(CC(=O)[O-])cccc1C(=O)c1ccc(Br)cc1.Nc1c(CC(=O)[O-])cccc1C(=O)c1ccc(Br)cc1.O.O.O.[Na+].[Na+] | > 46
26 | CNc1cc(OC)c(C(=O)N[C@H]2CCN(Cc3ccccc3)[C@H]2C)cc1Cl | > 46
27 | Cc1ccc(C(=O)C(C)CN2CCCCC2)cc1.Cl (stereo not drawn) | > 46
28 | C[C@@]1(CC2)[C@H](OC(C)=O)C[C@H]2[C@](C)1C | > 46
29 | O=[C@](OCC2=COC(CC3=CC=CC=C3)=C2)[C@H]1C(C)(C)[C@@H]1\C=C(C)/C | > 46
30 | CCN(CC)CCOC(=O)c1cccnc1.O=C(O)CC(O)(CC(=O)O)C(=O)O | > 46
31 | CN1CCC(=C2c3ccccc3CC(=O)c3sccc32)CC1 | > 46
32 | [C@@]2\1(\C(=C/C(/C=C/1)=O)CC[C@@H]4[C@@H]2CC[C@@]3(OC(=O)CC[C@H]34)C)C | > 46
33 | CC[C@H](C)[C@H](NC(=O)[C@H](Cc1ccccc1)NC(=O)[C@H](C)NC(=O)[C@H](CC(=O)O)NC(=O)[C@H](CCCCN)NC(=O)[C@H](CO)NC(=O)[C@@H]1CCCN1C(=O)[C@@H]1CCC(=O)N1)C(=O)NCC(=O)N[C@@H](CC(C)C)C(=O)N[C@@H](CCSC)C(N)=O | > 46
34 | [O-]S(=O)(=O)OC.C[N+]1(C)CC\C(CC1)=C(\c2ccccc2)c3ccccc3 | > 46
35 | CCn1cc(C(=O)O)c(=O)c2cc3c(cc21)OCO3 | > 46
36 | Cc1ccc2c(c1)C1CN(C)CCC1N2 (stereo not drawn) | > 46
37 | CO/N=C(\C(=O)N[C@@H]1C(=O)N2C(C(=O)O)=C(Cn3ccc(=N)n3CCO)CS[C@H]12)c1csc(N)n1.O=S(=O)(O)O | > 46

Results, then the molecule that gave them:

Row | IC50 [µM] | SMILES
38 | > 46 | CC(=O)Nc1c(I)c(C(=O)[O-])c(I)c(N(C)C(C)=O)c1I.[Na+]
39 | > 46 | CC1COc2c(N3CCN(C)CC3)c(F)cc3c(=O)c(C(=O)O)cn1c23 (stereo not drawn)
40 | > 46 | Cc1cn([C@H]2C[C@H](F)[C@@H](CO)O2)c(=O)[nH]c1=O
41 | > 46 | CC(O)[C@H]1CC[C@H]2[C@@H]3CC[C@@H]4C[C@@H](O)CC[C@]4(C)[C@H]3CC[C@]12C (stereo partly drawn)
42 | > 46 | O=c1[nH]c(=O)n([C@H]2C[C@H](O)[C@@H](CO)O2)cc1/C=C/Br
43 | > 46 | O=C(CCCN1CC=C(n2c(=O)[nH]c3ccccc32)CC1)c1ccc(F)cc1
44 | > 46 | O=[C@](O)[C@H]2N(C([C@H](C)N[C@H]([C@@](OCC)=O)CCC3=CC=CC=C3)=O)[C@@]1([H])CCCC[C@@]([H])1C2
45 | > 46 | Cc1nc2ccc(CN(C)c3ccc(C(=O)N[C@@H](CCC(=O)O)C(=O)O)s3)cc2c(=O)[nH]1
46 | > 46 | NS(=O)(=O)c1cc2c(cc1Cl)NCNS2(=O)=O
47 | > 46 | CCCCOC(=O)c1ccc(O)cc1
48 | > 46 | N#CC2=CC=C1[C@@](OCC1=C2)([C@]3=CC=C(C=C3)F)CCCN(C)C.OC(C(O)=O)=O
49 | > 46 | O=c1[n-]c2[nH]c(=O)[nH]c(=O)c2[nH]1.[Na+]
50 | > 46 | CCC(=O)c1c(O)cc(O)cc1O
51 | > 46 | O=C(CO)[C@@H](O)[C@H](O)[C@@H](O)C(=O)[O-].O=C(CO)[C@@H](O)[C@H](O)[C@@H](O)C(=O)[O-].[Ca+2]
52 | > 46 | C#CCN(C)Cc1ccccc1.Cl
53 | > 46 | C=Cc1ccc(S(=O)(=O)[O-])cc1.[Na+]
54 | > 46 | COc1ccc(C(=O)c2ccccc2O)c(O)c1
55 | > 46 | CC1CS(=O)(=O)CCN1/N=C/c1ccc([N+](=O)[O-])o1 (stereo not drawn)
56 | > 46 | NS(=O)(=O)c1cc(Cl)c(Cl)c(S(N)(=O)=O)c1
57 | > 46 | CC[C@H]1OC(=O)[C@H](C)[C@@H](O[C@H]2C[C@@](C)(OC)[C@@H](O)[C@H](C)O2)C(C)[C@@H](O[C@@H]2O[C@H](C)C[C@H](N(C)C)[C@H]2O)[C@](C)(OC)C[C@@H](C)C(=O)[C@H](C)[C@@H](O)[C@]1(C)O (stereo partly drawn)
58 | > 46 | C#C[C@]1(O)CC[C@H]2[C@@H]3CCC4=CC(=O)CC[C@@H]4[C@H]3CC[C@@]21C
59 | > 46 | CCN(CC)CCOc1ccc2nc(N(C)C)sc2c1
60 | > 46 | CCCCC[C@H](O)/C=C/[C@@H]1[C@@H](C/C=C\CCCC(=O)O)[C@@H](O)C[C@H]1O.COC(N)(CO)CO
61 | > 46 | CN1C(CCl)Nc2cc(Cl)c(S(N)(=O)=O)cc2S1(=O)=O (stereo not drawn)
62 | > 46 | O=C1[C@@](CC2)(C)[C@@](C)(C)[C@H]2C1
63 | > 46 | CC[C@H](C)C(=O)O[C@H]1CCC=C2C=C[C@H](C)[C@H](CC[C@@H]3C[C@@H](O)CC(=O)O3)[C@H]21

Row | IC50 [µM] | SMILES
64 | > 46 | CN1CCN(CCCN2c3ccccc3Sc3ccc(C(F)(F)F)cc32)CC1.Cl.Cl
65 | > 46 | C#CCOc1ccc2c(C)cc(=O)oc2c1
66 | > 46 | O=C(NCCO[N+](=O)[O-])c1cccnc1
67 | > 46 | O=C(O)COc1ccccc1/C=N/NC(=O)c1ccncc1
68 | > 46 | CN1CCC(=C2c3ccccc3CCc3sccc32)CC1
69 | > 46 | NS(=O)(=O)c1cc2c(cc1Cl)NC(C(Cl)Cl)NS2(=O)=O (stereo not drawn)
70 | > 46 | CN1CCC[C@@H]1Cc1c[nH]c2ccc(CCS(=O)(=O)c3ccccc3)cc12
71 | > 46 | Cn1c(=O)c2c(ncn2CC(O)CO)n(C)c1=O (stereo not drawn)
72 | > 46 | O=C(O)[C@H]1CN(C/C=C/P(=O)(O)O)CCN1
73 | > 46 | CN1C(=O)CC[C@H]1c1cccnc1
74 | > 46 | Cc1cc(C(C)(C)C)c(O)c(C)c1CC1=NCCN1
75 | > 46 | C1[C@@H]([C@H]([C@@H]([C@H]([N@]1CCO)CO)O)O)O
76 | > 46 | Cc1ccc(C(=O)c2ccc(CC(=O)[O-])n2C)cc1.O.O.[Na+]
77 | > 46 | CCN(CC)CCOc1ccc2c(c1)C(=O)c1cc(OCCN(CC)CC)ccc1-2
78 | > 46 | NCCc1cnc[nH]1
79 | > 46 | CCCCC(CC)CN1CN(CC(CC)CCCC)CC(C)(N)C1 (stereo not drawn)
80 | > 46 | CN(C)CCc1c[nH]c2ccc(C[C@H]3COC(=O)N3)cc12
81 | > 46 | Cc1ccc(-c2ncc(Cl)cc2-c2ccc(S(C)(=O)=O)cc2)cn1
82 | > 46 | CC(=O)Oc1cccc(C(=O)O)c1OC(C)=O
83 | > 46 | CC(=O)N/N=C/c1ccc([N+](=O)[O-])o1
84 | > 46 | NCCCC[C@H](N[C@@H](CCc1ccccc1)C(=O)O)C(=O)N1CCC[C@H]1C(=O)O.O.O
85 | > 46 | O=C1[C@](NC(C3S\C(S3)=C(C(O)=O)/C(N)=O)=O)(OC)[C@]2([H])N1C(C(O)=O)=C(CSC4=NN=NN4C)CS2 (stereo partly drawn)
86 | > 46 | NC[C@H](O)c1ccc(O)c(O)c1.O=C(O)C(O)C(O)C(=O)O.O=C(O)C(O)C(O)C(=O)O
87 | > 46 | N=C\2/N=C3/O[C@H]1[C@H](O)[C@@H](CO)O[C@H]1N3/C=C/2
88 | > 46 | CCN(CC)CCNC(=O)c1cc(Br)c(N)cc1OC
